Earlier results as cited in patent US20260124184A1, “ONCE DAILY ALDOSTERONE SYNTHASE INHIBITOR (R)-(+)-5-(P-CYANOPHENYL)-5,6,7,8-TETRAHYDROIMIDAZO[L,5-A]PYRIDINE” (priority 2022, published 2026).

Target: aldosterone synthase (Homo sapiens, UniProt P19099)
Conditions: ee of (R) form ≥99%; per WO 2018/078049; cited from earlier work

Sequence of aldosterone synthase (P19099 25-503, species assumed): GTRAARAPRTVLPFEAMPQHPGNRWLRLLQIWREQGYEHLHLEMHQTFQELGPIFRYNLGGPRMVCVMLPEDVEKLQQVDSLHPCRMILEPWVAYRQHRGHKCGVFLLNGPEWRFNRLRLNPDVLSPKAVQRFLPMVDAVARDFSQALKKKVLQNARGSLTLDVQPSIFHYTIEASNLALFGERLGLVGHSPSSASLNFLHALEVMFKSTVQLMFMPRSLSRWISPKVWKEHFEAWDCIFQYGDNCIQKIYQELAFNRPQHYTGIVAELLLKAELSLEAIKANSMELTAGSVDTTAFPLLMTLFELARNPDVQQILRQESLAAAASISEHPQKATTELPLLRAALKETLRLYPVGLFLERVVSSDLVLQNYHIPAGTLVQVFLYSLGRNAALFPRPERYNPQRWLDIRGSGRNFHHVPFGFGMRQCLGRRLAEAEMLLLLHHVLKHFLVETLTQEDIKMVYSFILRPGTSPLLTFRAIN

SMILES: N#Cc1ccc([C@H]2CCCc3cncn32)cc1 [(R)-(+)-5-(p-cyanophenyl)-5,6,7,8-tetrahydroimidazo[1,5-a]pyridine]
- aldosterone synthase inhibition, potency: low nanomolar
- aldosterone synthase inhibition, selectivity: selective
